Legend:
KatoIII cells [1] = assay: Cell cycle analysis and CLDN18.2 surface expression of KatoIII cells cultivated with cytostatic compounds; conditions: for cell cycle arrest (phase of the cell cycle): KatoIII cells cultivated with cytostatic compound, DNA content by flow cytometry; for CLDN18.2 expression: KatoIII cells, cultivation for 96 hours
Procedure: Epirubicin (Pfizer) was tested at a concentration of 10 or 100 ng/ml, 5-FU (Neofluor from NeoCorp AG) was tested at a concentration of 10 or 100 ng/ml, and oxaliplatin (Hospira) was tested at a concentration of 50 or 500 ng/ml.
As secondary reagent goat-anti-huIgG-APC from Dianova was used.
Cell cycle stages were determined based on measurement of cellular DNA content. […] Cell cycle analysis was done using the CycleTEST PLUS DNA Reagent Kit from BD Biosciences following the manufacturer's protocol. Flow cytometry acquisition and analysis were performed by using BD FACS CantoII (BD Biosciences) and FlowJo (Tree Star) software.

KatoIII cells [2] = assay: IMAB362-induced ADCC (luciferase) on KatoIII cells pretreated with Irinotecan, Docetaxel or Cisplatin; assay type: cell-based, human; conditions: KatoIII pretreated for 3 days; for level of viable cells compared to medium cultivated target cells: Irinotecan 1000 ng/ml, Docetaxel 5 ng/ml, Cisplatin 2000 ng/ml; for effect of pretreatment on potency of IMAB362 to induce ADCC: human PBMC effectors
Procedure: Peripheral blood mononuclear cells (PBMCs) including NK cells, monocytes, mononuclear cells or other effector cells from healthy human donors were purified by Ficoll Hypaque density centrifugation. Washed effector cells were seeded in X-Vivo medium. KatoIII cells which express CLDN18.2 endogenously and are of gastric origin were used as target cells in this setting. Target cells stably expressed luciferase, lucifer yellow, which is oxidized by viable cells only.

KatoIII cells [3] = assay: KatoIII cells pretreated with Irinotecan or Docetaxel: cell growth and cell cycle arrest; assay type: cell-based, human; conditions: KatoIII cells pretreated for 4 days
Procedure: Cell cycle stages were determined based on measurement of cellular DNA content. This allows one to discriminate between cells in the G1-, S- or G2-phase of the cell cycle. In the S-phase DNA duplication occurs whereas in the G2-phase cells grow and prepare for mitosis. Cell cycle analysis was done using the CycleTEST PLUS DNA Reagent Kit from BD Biosciences following the manufacturer's protocol. Flow cytometry acquisition and analysis were performed by using BD FACS CantoII (BD Biosciences) and FlowJo (Tree Star) software.
KatoIII cells were pretreated for 4 days with Irinotecan or Docetaxel and analysed for CLDN18.2 expression and cell cycle arrest.

PBMCs = assay: Expansion of PBMC cultures with ZA/IL-2; assay type: cell-based, human; conditions: 14 days, 300 U/ml IL-2
Procedure: PBMCs were harvested from healthy human donors and cultures were treated with a single dose of ZA. […] FIG. 8a. […] FIG. 8b. Increase in cell numbers was determined by counting living cells on day 6, 8, 11 and 14.

Vγ9Vδ2 T cells = assay: Enrichment of Vγ9Vδ2 T cells in co-culture with monocytes ± ZA; assay type: cell-based, human; conditions: co-cultures 14 days, ±1 μM ZA
Procedure: The enrichment of Vγ9Vδ2 T cells in the co-cultures after 14 days was determined by multicolor FACS, whereas the expansion of the culture was considered in the calculation. The enrichment factor of Vγ9Vδ2 T cells cultured with monocytes in a 1:4 ratio was set to 100% for each experiment. […] This effect was clearly ZA-dependent; cf. FIG. 11a.

NUGC-4 cells = assay type: cell-based, human
Procedure: (§1) Furthermore, human stomach cancer cells (NUGC-4-luciferase) and murine stomach cancer cells (CLS103-calcein stained) were pretreated with or w/o 5 μM ZA for 2 days. Human Vγ9Vδ2 T cells were MACS purified (day 14) and co-cultured with the cancer cells for 24 h. Cytotoxicity of Vγ9Vδ2 T cells towards non-treated and ZA-treated target cells was determined by measuring remaining luciferase activity or calcein fluorescence; cf. FIG. 11b. Target cells (NUGC-4 and CLS103) were pretreated with or w/o 5 μM ZA for 2 days and subsequently incubated for 4 h with mitomycin c ([…]) to stop proliferation. MACS purified human 14d old resting Vγ9Vδ2 T cells and ^3H-thymidine were added to the target cells and co-cultures were incubated for 48 h at 37° C. Proliferation was determined by measuring ^3H thymidine incorporation in the DNA using a MicroBeta scintillation counter. Proliferation of target cells not treated with ZA and w/o Vγ9Vδ2 T cells was set to 100%; cf. FIG. 11c.

CLS103 cells = system: CLS103 cells
Procedure: as §1

[4] = system: HEK293~CLDN18.2 transfectants; assay: Early treatment of HEK293~CLDN18.2 tumor xenografts; assay type: in vivo, nude mice; conditions: isotype control, 200 μg twice per week for 6 weeks
Source text: Moreover, advanced tumor treatment experiments were initiated up to 9 days after tumor cell inoculation when tumors had reached volumes of about 60-120 mm^3.
Nude mice were subcutaneously inoculated with 1×10^7 HEK293˜CLDN18.2 transfectants. Treatment of 10 mice per group started 3 days after tumor inoculation. […] Not only time to death was prolonged, but 4 of 10 mice survived the entire observation period of 210 days.

NUGC-4 xenografts = assay: In vivo tumor targeting of Dyelight 680-labeled antibodies (fluorescence imaging); set-up: species or system nude mice; conditions: time not stated

Row | Compound | cell cycle arrest (phase of the cell cycle) (KatoIII cells [1]) | claudin18.2 expression compared to medium cultivated cells (KatoIII cells [2]) | level of viable cells compared to medium cultivated target cells (KatoIII cells [2]) | effect of pretreatment on potency of IMAB362 to induce ADCC (KatoIII cells [2]) | also measured
1 | O=c1[nH]cc(F)c(=O)[nH]1 [5-FU, 5-fluoro-1H-pyrimidine-2,4-dione] | blocked predominantly in the S-phase |  |  |  | CLDN18.2 expression (KatoIII cells [1]): stabilize CLDN18.2-expression
2 | N.N.[Cl][Pt][Cl] [Cisplatin, cis-diamminedichloroplatinum(II)] |  | increased | lower level of viable cells | augmented the potency of IMAB362 to induce ADCC | 
3 | CC(=O)O[C@@]12CO[C@@H]1C[C@H](O)[C@@]1(C)C(=O)[C@H](O)C3=C(C)[C@@H](OC(=O)[C@H](O)[C@@H](NC(=O)OC(C)(C)C)c4ccccc4)C[C@@](O)([C@@H](OC(=O)c4ccccc4)[C@H]21)C3(C)C [Docetaxel, docetaxel] |  | increased | lower level of viable cells | augmented the potency of IMAB362 to induce ADCC | cell cycle arrest (phase) (KatoIII cells [3]): cell cycle arrest in the G2-phase; inhibition of cell growth (KatoIII cells [3]): dose dependent inhibition of cell growth
4 | COc1cccc2c1C(=O)c1c(O)c3c(c(O)c1C2=O)C[C@@](O)(C(=O)CO)C[C@@H]3O[C@H]1C[C@H](N)[C@@H](O)[C@H](C)O1 [Epirubicin] | cell cycle arrest predominantly in the G2-phase |  |  |  | CLDN18.2 expression (KatoIII cells [1]): stabilize CLDN18.2-expression
5 | CCc1c2c(nc3ccc(OC(=O)N4CCC(N5CCCCC5)CC4)cc13)-c1cc3c(c(=O)n1C2)COC(=O)[C@]3(O)CC [Irinotecan, (S)-4,11-diethyl-3,4,12,14-tetrahydro-4-hydroxy-3,14-dioxo1H-pyrano[3′,4′:6,7]-indolizino[1,2-b]quinolin-9-yl-[1,4′bipiperidine]-1′-carboxylate] |  | increased | lower level of viable cells | augmented the potency of IMAB362 to induce ADCC | cell cycle arrest (phase) (KatoIII cells [3]): cell cycle arrest in the S/G2-phase; inhibition of cell growth (KatoIII cells [3]): dose dependent inhibition of cell growth
6 | O=C1[O][Pt]2([NH][C@@H]3CCCC[C@H]3[NH]2)[O]C1=O [Oxaliplatin, [(1R,2R)-cyclohexane-1,2-diamine](ethanedioato-O,O′)platinum(II)] | enrichment of cells predominantly in the G1- and G2-phases |  |  |  | 
7 | O=P(O)(O)C(O)(Cn1ccnc1)P(=O)(O)O [ZA, [1-hydroxy-2-(1H-imidazol-1-yl)ethane-1,1-diyl]bis(phosphonic acid)] |  |  |  |  | lower expansion of cells in medium without ZA versus with ZA (PBMCs): about 2 fold; enrichment of Vγ9Vδ2 T cells with increase of monocytes in the culture (ZA-dependent) (Vγ9Vδ2 T cells): more than 10 fold; activation of Vγ9Vδ2 T cell cytotoxicity by ZA-pulsed cancer cells (NUGC-4 cells): 5-10 fold; activation of Vγ9Vδ2 T cells (cytotoxicity and proliferation) by ZA-pulsed cancer cells (CLS103 cells): failed to elicit these effects
8 | infliximab: isotype control antibody [reference compound] |  |  |  |  | time within which all mice died [4]: 70 to 80 days
9 | rituximab: Dyelight 680-labeled negative control antibody (NUGC-4 negative for CD20) [reference compound] |  |  |  |  | signal of labeled antibody (negative control, NUGC-4 negative for CD20) (NUGC-4 xenografts): No signal is detected

Reference: patent US12059464B2, “Combination therapy involving antibodies against Claudin 18.2 for treatment of cancer” (Astellas Pharma Inc., priority 2012, dated 2024)
